Assay results reported in patent publication US20150157739A1, “Imidazo[2,1]thiazol-3-one derivatives” (Hoffmann-La Roche Inc., priority 2012, published 2015).

What was measured:
[1] = target: T1, aggregated recombinant human-microtubule associated protein Tau (Homo sapiens, UniProt P10636); experiment: Thiazin-red R displacement fluorescence assay on aggregated Tau; assay type: binding; settings: displacement of Thiazin-red R from aggregated Tau; compound 0.3 nM to 10000 nM; 30 min room temperature; Ex 531 nm/Em 595 nm
T1 construct: Recombinant human-microtubule associated protein Tau purified from E. coli is aggregated at a concentration of 5 μM with Arachidonic Acid (100 μM) in Tris 10 mM pH8, 24 h at 37° C
Method: (§1) Assay for Determination of […] for Tau and A-Beta
(§2) Recombinant human-microtubule associated protein Tau purified from E. coli is aggregated at a concentration of 5 μM with Arachidonic Acid (100 μM) in Tris 10 mM pH8, 24 h at 37° C. Synthetic Aβ40 is aggregated at a concentration of 50 μM with Arachidonic Acid (100 μM) in Tris 10 mM pH8, for three days at 37° C., under shaking at 150 rpm.
(§3) A saturation analysis of Thiazin-red R to the aggregated proteins is done to determine the affinity (Kd) of the Thiazin-red R to the aggregated protein.
(§4) Thiazin-red R will be added at the concentration corresponding to the Kd to the respective aggregated protein binding site, to induce a fluorescent signal that can be inhibited by the addition of a displacer compound.
(§5) In parallel, auto fluorescence of the compound is measured together with the aggregated proteins, but without Thiazin-red R. As negative control, ligand and aggregated protein is used and as positive control, Thiazin-red R, reference compound with known activity and aggregated protein is used.
(§6) Assay is performed in Perkin Elmer OptiPlate 384, black, 45 ul assay volume, assay buffer is DPBS no CaCl2 no MgCl2 (GIBCO N. 14020). Tested compounds are diluted in DMSO and 2 μl is added to the assay ([…]). Assay is started by the addition of the aggregated protein (competitive condition). Plates are shortly shacked (1 min with Sterico variomag teleshake) and incubated for 30 min at room temperature. Measurement are done with En:Vision (Perkin Elmer), at Excitation 531 nm/Emission 595 nm.

[2] = target: T2, aggregated synthetic Aβ40 (Homo sapiens, UniProt P05067); experiment: Thiazin-red R displacement fluorescence assay on aggregated A-beta; assay type: binding; settings: displacement of Thiazin-red R from aggregated Aβ40; compound 0.3 nM to 10000 nM; 30 min room temperature; Ex 531 nm/Em 595 nm
T2 construct: Synthetic Aβ40 is aggregated at a concentration of 50 μM
Method: as §1, §2, §3, §4, §5, §6

T2 sequence (P05067 672-711 limits assumed): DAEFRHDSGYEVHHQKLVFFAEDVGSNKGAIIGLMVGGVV
T1 sequence (P10636 whole entry): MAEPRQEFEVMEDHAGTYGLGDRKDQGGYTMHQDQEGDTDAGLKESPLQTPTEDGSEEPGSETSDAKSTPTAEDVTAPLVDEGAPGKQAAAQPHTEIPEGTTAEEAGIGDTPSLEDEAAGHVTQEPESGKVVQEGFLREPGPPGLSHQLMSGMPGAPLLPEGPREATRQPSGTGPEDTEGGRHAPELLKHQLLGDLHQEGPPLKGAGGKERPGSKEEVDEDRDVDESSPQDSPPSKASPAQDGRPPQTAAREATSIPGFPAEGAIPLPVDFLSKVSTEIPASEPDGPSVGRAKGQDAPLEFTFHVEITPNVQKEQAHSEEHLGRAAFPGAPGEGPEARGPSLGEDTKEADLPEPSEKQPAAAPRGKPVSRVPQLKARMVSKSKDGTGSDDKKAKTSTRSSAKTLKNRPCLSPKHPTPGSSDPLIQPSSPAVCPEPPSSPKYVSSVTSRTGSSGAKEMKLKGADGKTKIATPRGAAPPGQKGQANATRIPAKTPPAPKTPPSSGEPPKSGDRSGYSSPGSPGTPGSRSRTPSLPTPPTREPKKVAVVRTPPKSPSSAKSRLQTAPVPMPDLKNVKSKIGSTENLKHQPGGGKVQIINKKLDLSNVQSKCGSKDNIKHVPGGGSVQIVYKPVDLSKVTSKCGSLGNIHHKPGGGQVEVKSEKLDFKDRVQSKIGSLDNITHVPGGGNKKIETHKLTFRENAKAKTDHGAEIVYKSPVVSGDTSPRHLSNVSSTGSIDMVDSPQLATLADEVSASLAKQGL

IC50 [1] | IC50 [2] | Compound
701 nM | > 10000 nM | CCc1cc(/C=c2\sc3nc(-c4cccc(OC(F)(F)F)c4)cn3c2=O)cc(OC)c1O [Example 40, 2-[1-(3-Ethyl-4-hydroxy-5-methoxy-phenyl)-meth-(Z)-ylidene]-6-(3-trifluoromethoxy-phenyl)-imidazo[2,1-b]thiazol-3-one]
16 nM | 1810 nM | COc1cc(/C=c2\sc3nc(-c4cccc(C(F)(F)F)c4)cn3c2=O)cc(F)c1O [Example 41, 2-[1-(3-fluoro-4-hydroxy-5-methoxy-phenyl)-meth-(Z)-ylidene]-6-(3-(trifluoromethyl)-phenyl)-imidazo[2,1-b]thiazol-3-one]
24 nM | 198 nM | COc1cc(/C=c2\sc3nc(-c4ccc(F)c(C(F)(F)F)c4)cn3c2=O)cc(F)c1O [Example 42, 2-[1-(3-fluoro-4-hydroxy-5-methoxy-phenyl)-meth-(Z)-ylidene]-6-(4-fluoro-3-(trifluoromethyl)-phenyl)-imidazo[2,1-b]thiazol-3-one]
51 nM | 2320 nM | COc1cc(/C=c2\sc3nc(-c4ccccc4)cn3c2=O)cc(F)c1O [Example 43, 2-[1-(3-fluoro-4-hydroxy-5-methoxy-phenyl)-meth-(Z)-ylidene]-6-phenyl-imidazo[2,1-b]thiazol-3-one]
6 nM | 24000 nM | COc1cc(/C=c2\sc3nc(-c4cccc(C#N)c4)cn3c2=O)cc(Cl)c1O [Example 44, 3-{2-[1-(3-Chloro-4-hydroxy-5-methoxy-phenyl)-meth-(Z)-ylidene]-3-oxo-2,3-dihydro-imidazo[2,1-b]thiazol-6-yl}-benzonitrile]
25 nM | > 10000 nM | COc1cc(/C=c2\sc3nc(-c4cccc(C#N)c4)cn3c2=O)cc(Br)c1O [Example 45, 3-{2-[1-(3-Bromo-4-hydroxy-5-methoxy-phenyl)-meth-(Z)-ylidene]-3-oxo-2,3-dihydro-imidazo[2,1-b]thiazol-6-yl}-benzonitrile]
28 nM | 5910 nM | COc1cc(/C=c2\sc3nc(-c4ccc(F)c(C(F)(F)F)c4)cn3c2=O)cc(Br)c1O [Example 46, 2-[1-(3-bromo-4-hydroxy-5-methoxy-phenyl)-meth-(Z)-ylidene]-6-(4-fluoro-3-(trifluoromethyl)-phenyl)-imidazo[2,1-b]thiazol-3-one]
17 nM | 540 nM | COc1cccc(-c2cn3c(=O)/c(=C/c4cc(F)c(O)c(OC)c4)sc3n2)c1 [Example 47, 2-[1-(3-Fluoro-4-hydroxy-5-methoxy-phenyl)-meth-(Z)-ylidene]-6-(3-methoxy-phenyl)-imidazo[2,1-b]thiazol-3-one]
20 nM | 1790 nM | COc1cccc(-c2cn3c(=O)/c(=C/c4cc(F)c(O)c(OC)c4)sc3n2)n1 [Example 48, 2-[1-(3-Fluoro-4-hydroxy-5-methoxy-phenyl)-meth-(Z)-ylidene]-6-(6-methoxy-pyridin-2-yl)-imidazo[2,1-b]thiazol-3-one]
16 nM | 1370 nM | COc1cc(/C=c2\sc3nc(-c4cc(F)cc(F)c4)cn3c2=O)cc(Cl)c1O [Example 49, 2-[1-(3-Chloro-4-hydroxy-5-methoxy-phenyl)-meth-(Z)-ylidene]-6-(3,5-difluoro-phenyl)-imidazo[2,1-b]thiazol-3-one]

The next lines start with the molecule.

Compound | IC50 [1] | IC50 [2]
COc1cc(/C=c2\sc3nc(-c4cccc(C(F)(F)F)c4)cn3c2=O)cc(OC)c1O [Example 19, 2-[1-(4-Hydroxy-3,5-dimethoxy-phenyl)-meth-(Z)-ylidene]-6-(3-trifluoromethyl-phenyl)-imidazo[2,1-b]thiazol-3-one] | 1 nM | 115 nM
COc1cc(/C=c2\sc3nc(-c4cccc(C)c4)cn3c2=O)cc(OC)c1O [Example 20, 2-[1-(4-Hydroxy-3,5-dimethoxy-phenyl)-meth-(Z)-ylidene]-6-m-tolyl-imidazo[2,1-b]thiazol-3-one] | 3 nM | 20 nM
COc1cc(/C=c2\sc3nc(-c4cccc(OC(F)(F)F)c4)cn3c2=O)cc(Cl)c1O [Example 22, 2-[1-(3-Chloro-4-hydroxy-5-methoxy-phenyl)-meth-(Z)-ylidene]-6-(3-trifluoromethoxy-phenyl)-imidazo[2,1-b]thiazol-3-one] | 3 nM | 198 nM
COc1cc(/C=c2\sc3nc(-c4ccc(C(=O)N(C)CCOCCF)cc4)cn3c2=O)cc(Cl)c1O [Example 23, 4-{2-[1-(3-Chloro-4-hydroxy-5-methoxy-phenyl)-meth-(Z)-ylidene]-3-oxo-2,3-dihydro-imidazo[2,1-b]thiazol-6-yl}-N-[2-(2-fluoro-ethoxy)-ethyl]-N-methyl-benzamide] | 26 nM | 328 nM
COc1cc(/C=c2\sc3nc(-c4cccc(C(F)(F)F)c4)cn3c2=O)cc(Cl)c1O [Example 24, 2-[1-(3-Chloro-4-hydroxy-5-methoxy-phenyl)-meth-(Z)-ylidene]-6-(3-trifluoromethyl-phenyl)-imidazo[2,1-b]thiazol-3-one] | 3 nM | 123 nM
CCOc1cc(/C=c2\sc3nc(-c4ccc(Cl)cc4)cn3c2=O)cc(OC)c1O [Example 26, 6-(4-Chloro-phenyl)-2-[1-(3-ethoxy-4-hydroxy-5-methoxy-phenyl)-meth-(Z)-ylidene]-imidazo[2,1-b]thiazol-3-one] | 2 nM | 4 nM
COc1cc(/C=c2\sc3nc(-c4ccc(Cl)cc4)cn3c2=O)cc(OCCF)c1O [Example 27, 6-(4-Chloro-phenyl)-2-[1-(3-(2-fluoro-ethoxy)-4-hydroxy-5-methoxy-phenyl)-meth-(Z)-ylidene]-imidazo[2,1-b]thiazol-3-one] | 1 nM | 7 nM
COc1cc(/C=c2\sc3nc(-c4ccc(C(F)(F)F)c(F)c4)cn3c2=O)cc(Cl)c1O [Example 28, 2-[1-(3-Chloro-4-hydroxy-5-methoxy-phenyl)-meth-(Z)-ylidene]-6-(3-fluoro-4-trifluoromethyl-phenyl)-imidazo[2,1-b]thiazol-3-one] | 23 nM | 1060 nM
COc1cc(/C=c2\sc3nc(-c4ccc(C(F)(F)F)c(F)c4)cn3c2=O)cc(OC)c1O [Example 29] | 11 nM | 43 nM
COc1cc(/C=c2\sc3nc(-c4ccc(Cl)cc4)cn3c2=O)cc(OC(C)C)c1O [Example 30, 6-(4-Chloro-phenyl)-2-[1-(4-hydroxy-3-isopropoxy-5-methoxy-phenyl)-meth-(Z)-ylidene]-imidazo[2,1-b]thiazol-3-one] | 6 nM | 16 nM
CCCOc1cc(/C=c2\sc3nc(-c4ccc(Cl)cc4)cn3c2=O)cc(OC)c1O [Example 31, 6-(4-Chloro-phenyl)-2-[1-(4-hydroxy-3-methoxy-5-propoxy-phenyl)-meth-(Z)-ylidene]-imidazo[2,1-b]thiazol-3-one] | 3 nM | 12 nM
COc1cc(/C=c2\sc3nc(-c4ccc(Cl)cc4)cn3c2=O)cc(C)c1O [Example 32, 6-(4-Chloro-phenyl)-2-[1-(4-hydroxy-3-methoxy-5-methyl-phenyl)-meth-(Z)-ylidene]-imidazo[2,1-b]thiazol-3-one] | 7 nM | 39 nM
CCCOc1cc(/C=c2\sc3nc(-c4cccc(OC(F)(F)F)c4)cn3c2=O)cc(OC)c1O [Example 33, 2-[1-(4-Hydroxy-3-methoxy-5-propoxy-phenyl)-meth-(Z)-ylidene]-6-(3-trifluoromethoxy-phenyl)-imidazo[2,1-b]thiazol-3-one] | 25 nM | 256 nM
COc1cc(/C=c2\sc3nc(-c4cccc(OC(F)(F)F)c4)cn3c2=O)cc(OC(C)C)c1O [Example 34, 2-[1-(4-Hydroxy-3-methoxy-5-isopropoxy-phenyl)-meth-(Z)-ylidene]-6-(3-trifluoromethoxy-phenyl)-imidazo[2,1-b]thiazol-3-one] | 26 nM | 437 nM
COc1cc(/C=c2\sc3nc(-c4cccc(OC(F)(F)F)c4)cn3c2=O)ccc1O [Example 36, 2-[1-(4-Hydroxy-3-methoxy-phenyl)-meth-(Z)-ylidene]-6-(3-trifluoromethoxy-phenyl)-imidazo[2,1-b]thiazol-3-one] | 401 nM | > 10000 nM
COc1cc(/C=c2\sc3nc(-c4cccc(OC(F)(F)F)c4)cn3c2=O)cc(Br)c1O [Example 37, 2-[1-(3-Bromo-4-hydroxy-5-methoxy-phenyl)-meth-(Z)-ylidene]-6-(3-trifluoromethoxy-phenyl)-imidazo[2,1-b]thiazol-3-one] | 6 nM | 552 nM
COc1cc(/C=c2\sc3nc(-c4cccc(Cl)c4)cn3c2=O)cc(F)c1O [Example 39, 2-[1-(3-fluoro-4-hydroxy-5-methoxy-phenyl)-meth-(Z)-ylidene]-6-(3-chloro-phenyl)-imidazo[2,1-b]thiazol-3-one] | 11 nM | 412 nM
